13 molecules from ChEMBL document CHEMBL4033694, “Synthesis, antimycobacterial activity and docking study of 2-aroyl-[1]benzopyrano[4,3-c]pyrazol-4(1H)-one derivatives and related hydrazide-hydrazones” (Bioorg Med Chem Lett, 2017) can be followed below.

Values after ≈ are worked out from the molar mass of the structure shown. Counter-ions that a name gives are not always drawn. A value given as a limit tells only on which side of the number the result lay.

A short description of data set [1]: Solubility of the compound in EtOH. Type of data set: physicochemical.
A short description of data set [2]: Stability of the compound in DMSO-d6 solvent measured every 8 hrs for 12 days by 1H NMR spectra analysis. It counts as physicochemical. To be noted: 288 h.
The nature of data set [3]: Solubility of the compound in MeOH. It counts as physicochemical.
Data set [4] is described as follows: Thermal stability of the compound in DMSO-d6 solvent at 37 degC by 1H NMR spectra analysis. It counts as physicochemical.
The nature of data set [5]: Stability of the compound in DMSO-d6 solvent/middlebrook 7H9 broth media after 16 hrs by 1H NMR spectra analysis. Type of data set: physicochemical.
Data set [6] concerns Mycobacterium tuberculosis. Briefly: Antimicrobial activity against Mycobacterium tuberculosis H37Rv after 7 days by resazurin microtiter assay. Type of data set: functional. As to conditions: 168 h.
Data set [7] can be described thus: Solubility of the compound in CHCl3. Type of data set: physicochemical.
Data set [8] is described as follows: Solubility of the compound in H2O. It counts as physicochemical.
Data set [9] can be described thus: Selectivity index, ratio of IC50 for HEK293T cells to MIC for Mycobacterium tuberculosis H37Rv. It counts as toxicity. To be noted: human, read-out: Selectivity Index.
The subject of the next data set is HEK-293T. Kind of data set: Cytotoxicity against HEK293T cells after 72 hrs by MTT assay. As to conditions: Homo sapiens. Type of data set: cell-based. In general terms: Tetrazolium dyes change colour on reduction, which living cells bring about.

The term MIC denotes the smallest concentration in the dilution series that meets the test's criterion for growth inhibition. Low readings indicate a more susceptible organism, high ones a less susceptible organism. Broadly, the IC50 is the midpoint of a concentration-inhibition curve. A lower IC50 goes with higher potency. Consider `CN(C)c1ccc(C(=O)n2cc3c(=O)oc4ccccc4c3n2)cc1`, for which the solubility entry in data set [1], in data set [3], in data set [7] and in data set [8] was “Insoluble” each time. In addition, the Stability entry in [2], in data set [4] and in data set [5] was “Stable” each time. This molecule also returned an MIC in [6] of 0.59 µM (≈ 0.197 µg/mL). Moreover, the selectivity ratio in data set [9] was greater than 408. The molecule further yielded an IC50 in the data set on HEK-293T greater than 200 µM.

In [6], `O=C(c1ccc(O)cc1)n1cc2c(=O)oc3ccccc3c2n1` came in with an MIC of 0.32 µM (≈ 0.098 µg/mL). The selectivity ratio in [9] was greater than 625. The same molecule yielded an IC50 with HEK-293T greater than 200 µM.

In the case of `COc1ccc(C(=O)N/N=C/c2c(Cl)c3ccccc3oc2=O)cc1`, the solubility entry in [1], in data set [3], in [7] and in [8] was “Insoluble” in each case. The Stability entry in [2], in data set [4] and in data set [5] was “Stable” in each case. In addition, in data set [6], the MIC is 0.28 µM (≈ 0.0999 µg/mL). In addition, the selectivity ratio in [9] turned out to be 403. The molecule further returned an IC50 with HEK-293T of 113 µM.

In [6], `O=C(N/N=C/c1c(Cl)c2ccccc2oc1=O)c1ccc(O)cc1O` returned an MIC of 0.56 µM (≈ 0.201 µg/mL).

Regarding `O=C(N/N=C/c1c(Cl)c2ccccc2oc1=O)c1ccc(Cl)cc1`, the solubility entry in data set [1], in [3], in data set [7] and in data set [8] was “Insoluble” each time. Moreover, the Stability result in data set [2], in data set [4] and in [5] was “Stable” throughout. In data set [6], this molecule yielded an MIC of 0.55 µM (≈ 0.199 µg/mL). Further, the selectivity ratio in data set [9] was found to be 33. Further, in the data set on HEK-293T, the IC50 came out at 21 µM.

For `COc1ccc(C(=O)n2cc3c(=O)oc4ccccc4c3n2)cc1`, the solubility entry in data set [1], in data set [3], in data set [7] and in [8] was “Insoluble” each time. Besides, the Stability result in [2], in data set [4] and in data set [5] was “Stable” each time. In addition, in [6], 0.62 µM (≈ 0.199 µg/mL) was the least that counted as inhibitory (MIC). In addition, in data set [9], the selectivity ratio is greater than 645. In the data set with HEK-293T, this molecule returned an IC50 greater than 200 µM.

Consider `O=C(c1ccc(O)cc1O)n1cc2c(=O)oc3ccccc3c2n1`, for which the solubility result in [1], in [3], in data set [7] and in [8] was “Insoluble” in each case. The Stability entry in [2], in data set [4] and in data set [5] was “Stable” each time. For the same molecule, in [6], the MIC stood at 0.62 µM (≈ 0.2 µg/mL). In addition, the selectivity ratio in data set [9] is greater than 308. The molecule also gave an IC50 in the data set with HEK-293T greater than 200 µM.

Take `CN(C)c1ccc(C(=O)N/N=C/c2c(Cl)c3ccccc3oc2=O)cc1`: the solubility result in data set [1], in data set [3], in data set [7] and in data set [8] was “Insoluble” each time. In addition, the Stability result in data set [2], in data set [4] and in data set [5] was “Stable” throughout. Besides, the MIC in [6] stood at 0.54 µM (≈ 0.2 µg/mL). In addition, in [9], the selectivity ratio turned out to be 20. In addition, 18.7 µM corresponded to half-maximal inhibition with HEK-293T (IC50).

In [6], `O=C(c1ccco1)n1cc2c(=O)oc3ccccc3c2n1` registered an MIC of 0.72 µM (≈ 0.202 µg/mL). The selectivity ratio in [9] is greater than 282. The molecule further had an IC50 in the data set with HEK-293T greater than 200 µM.

Molecule `Cc1occc1C(=O)n1cc2c(=O)oc3ccccc3c2n1` gave an MIC in data set [6] of 1.69 µM (≈ 0.497 µg/mL). For the same molecule, in [9], the selectivity ratio is greater than 119. For the same molecule, in the data set on HEK-293T, the IC50 was greater than 200 µM.

For `O=C(N/N=C/c1c(Cl)c2ccccc2oc1=O)c1ccco1`, the solubility entry in data set [1], in data set [3], in data set [7] and in data set [8] was “Insoluble” each time. For the same molecule, the Stability result in data set [2], in [4] and in [5] was “Stable” throughout. Besides, it took 0.63 µM (≈ 0.2 µg/mL) to inhibit growth in [6] (MIC). The selectivity ratio in data set [9] worked out at 236. Also, it took 63.6 µM to reach half-maximal inhibition in the data set on HEK-293T (IC50).

Molecule `CC[C@@H](CO)NCCN[C@@H](CC)CO` [ETHAMBUTOL HYDROCHLORIDE] showed an MIC in data set [6] of 1.46 µM.

On to `NNC(=O)c1ccncc1` [ISONIAZID], for which, in [6], the MIC stood at 0.79 µM (≈ 0.108 µg/mL).
